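Cultured in 96-well plates, cells were exposed to test compound for 48 hours across five concentrations. GI50 is the concentration that inhibits growth by half.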 Activity calls are given as the source filed them. Rule as the data show it: active = GI50 up to about 1.1 µM and inactive = higher.

Test systems include OVCAR-5; SK-MEL-28; Malme-3M; A549; MCF7; KM12; SN12C; HCC 2998; SF-295; HL-60; PC-3; MDA-MB-435; IGROV-1; Hs-578T; LOX IMVI; SK-OV-3; U-251; BT-549; SW-620; MOLT-4.
What all share (assay): NCI anticancer screen, dose series, 48 h

For `Nc1nc(SCc2ccccc2Cl)cc(C(=O)O)n1`, the GI50 in the experiment with OVCAR-5 is 78 µM (inactive); in the experiment with SK-MEL-28 it was 87.3 µM (inactive); in the experiment with Malme-3M it was 39.4 µM (inactive); with A549, > 100 µM (inactive); in the experiment on MCF7 it was > 100 µM (inactive); with KM12, 55.5 µM (inactive). Moreover, the GI50 is 97.1 µM (inactive) with SN12C; 59.2 µM (inactive) with HCC 2998; 58.2 µM (inactive) with SF-295; 64.1 µM (inactive) in the experiment on HL-60; 53.6 µM (inactive) with PC-3; 73.1 µM (inactive) with MDA-MB-435. Further, the GI50 was > 100 µM (inactive) in the experiment on IGROV-1; 49.1 µM (inactive) in the experiment with Hs-578T; 44.4 µM (inactive) in the experiment on LOX IMVI; > 100 µM (inactive) with SK-OV-3; 54.8 µM (inactive) in the experiment on U-251; 97.9 µM (inactive) in the experiment on BT-549. In addition, in the experiment with SW-620, the GI50 is 70.6 µM (inactive).

As for `CCCCn1c2c(c3ccccc3c1=O)C(=O)c1ccccc1-2`, the GI50 with OVCAR-5 is > 100 µM (inactive); in the experiment with SK-MEL-28, > 100 µM (inactive); with Malme-3M it was > 100 µM (inactive); with A549 it was 25 µM (inactive); with MCF7 it was 15 µM (inactive); in the experiment with KM12, > 100 µM (inactive). Besides, the GI50 with SN12C was > 100 µM (inactive); with SF-295, 37.8 µM (inactive); in the experiment with HL-60 it was 4.28 µM (inactive); in the experiment with PC-3 it was > 100 µM (inactive); in the experiment with MDA-MB-435, > 100 µM (inactive); with IGROV-1, 76.7 µM (inactive). For the same molecule, the GI50 was 33.7 µM (inactive) in the experiment with Hs-578T; > 100 µM (inactive) in the experiment with LOX IMVI; > 100 µM (inactive) in the experiment with SK-OV-3; 66.1 µM (inactive) with U-251; > 100 µM (inactive) with BT-549; > 100 µM (inactive) with SW-620.

As to `COCc1nc(C#N)c(N)o1`, the GI50 in the experiment on SK-MEL-28, in the experiment on Malme-3M, in the experiment with A549, in the experiment with MCF7, with MOLT-4 and with KM12 was > 10 µM (inactive) in each case. Moreover, the GI50 in the experiment with SN12C, in the experiment on HCC 2998, in the experiment on SF-295, with HL-60, in the experiment on PC-3 and with MDA-MB-435 was > 10 µM (inactive) in each case. The GI50 in the experiment on IGROV-1, in the experiment on Hs-578T, in the experiment with LOX IMVI, with SK-OV-3, in the experiment on BT-549 and in the experiment on SW-620 was > 10 µM (inactive) each time.

As for `COc1ccc(OC)c([N+](=O)[O-])c1-c1nc2sc(Cl)cn2c1/C=N/N=C(N)N`, the GI50 in the experiment on OVCAR-5 is 25.9 µM (inactive); in the experiment on SK-MEL-28, 13.9 µM (inactive); in the experiment on Malme-3M, 22.5 µM (inactive); in the experiment on A549 it was 23.2 µM (inactive); in the experiment with MCF7 it was 9.89 µM (inactive); in the experiment with MOLT-4, 4.9 µM (inactive). Moreover, the GI50 is 15.4 µM (inactive) with KM12; 17.3 µM (inactive) with SN12C; 12.7 µM (inactive) in the experiment with HCC 2998; 24.9 µM (inactive) in the experiment with SF-295; 11.2 µM (inactive) with HL-60; 13.8 µM (inactive) in the experiment on PC-3. The GI50 was 17.5 µM (inactive) in the experiment with MDA-MB-435; 12.9 µM (inactive) in the experiment on IGROV-1; 19.1 µM (inactive) in the experiment on Hs-578T; 25 µM (inactive) in the experiment with LOX IMVI; 24.8 µM (inactive) with U-251; 16.8 µM (inactive) in the experiment with BT-549. Also, the GI50 with SW-620 was 20.2 µM (inactive).

On to `CC(=O)OCC1CCC(=C2C(=O)OC(C)(C)OC2=O)N1` (centres undefined), for which the GI50 in the experiment with SK-MEL-28, in the experiment with Malme-3M, with A549, in the experiment on MCF7, with MOLT-4 and in the experiment on KM12 was > 100 µM (inactive) throughout. Further, the GI50 in the experiment with SN12C, in the experiment with HCC 2998, in the experiment with SF-295, in the experiment on HL-60, with PC-3 and with MDA-MB-435 was > 100 µM (inactive) each time. In addition, the GI50 with IGROV-1, in the experiment with Hs-578T, with LOX IMVI, with SK-OV-3, in the experiment on U-251 and with BT-549 was > 100 µM (inactive) each time. Besides, the GI50 in the experiment with SW-620 was > 100 µM (inactive).

On to `Cc1nn(C(=O)c2ccncc2)c2c1C(c1ccc([N+](=O)[O-])cc1)SC(=N)N2` (centres undefined), for which the GI50 in the experiment on OVCAR-5, in the experiment with SK-MEL-28, with Malme-3M, in the experiment on A549, in the experiment with MCF7 and with MOLT-4 was > 100 µM (inactive) each time. For the same molecule, the GI50 in the experiment with KM12, with SN12C, in the experiment with SF-295, in the experiment on HL-60, in the experiment with PC-3 and in the experiment with MDA-MB-435 was > 100 µM (inactive) each time. The GI50 in the experiment with IGROV-1, in the experiment on Hs-578T, in the experiment on LOX IMVI, in the experiment on SK-OV-3, with U-251 and in the experiment on BT-549 was > 100 µM (inactive) throughout. Moreover, in the experiment on SW-620, the GI50 was > 100 µM (inactive).

On to `O=C1NC(=S)NC(=O)C1C(c1ccc([N+](=O)[O-])cc1)C1C(=O)NC(=S)NC1=O.c1ccncc1`, for which the GI50 with OVCAR-5, in the experiment on SK-MEL-28, in the experiment with A549, in the experiment with MCF7, in the experiment with MOLT-4 and in the experiment with KM12 was > 100 µM (inactive) throughout. Moreover, the GI50 in the experiment on SN12C, with SF-295, in the experiment on HL-60, with PC-3, in the experiment with MDA-MB-435 and in the experiment on IGROV-1 was > 100 µM (inactive) each time. Moreover, the GI50 in the experiment with Hs-578T, with LOX IMVI, with U-251, with BT-549 and with SW-620 was > 100 µM (inactive) throughout.

Consider `C1CCNCC1.O=C1NC(=S)N/C1=C/c1ccccc1O`, for which the GI50 is > 100 µM (inactive) with OVCAR-5; > 100 µM (inactive) with SK-MEL-28; > 100 µM (inactive) in the experiment on Malme-3M; > 100 µM (inactive) in the experiment on A549; > 100 µM (inactive) with MCF7; 73.1 µM (inactive) with MOLT-4. In addition, the GI50 was > 100 µM (inactive) in the experiment on SN12C; 23.5 µM (inactive) with HCC 2998; > 100 µM (inactive) in the experiment on SF-295; > 100 µM (inactive) in the experiment on HL-60; > 100 µM (inactive) in the experiment on PC-3; > 100 µM (inactive) in the experiment on MDA-MB-435. Moreover, the GI50 in the experiment with IGROV-1 is 99.1 µM (inactive); in the experiment on Hs-578T, 26.4 µM (inactive); in the experiment on LOX IMVI it was > 100 µM (inactive); with SK-OV-3, > 100 µM (inactive); with U-251, > 100 µM (inactive); with BT-549, > 100 µM (inactive). In the experiment with SW-620, the GI50 is > 100 µM (inactive).

With `CC1(c2ccccc2)CCN(C2CC2)CO1` (centres undefined), the GI50 was 17.5 µM (inactive) with OVCAR-5; 19.7 µM (inactive) with SK-MEL-28; 19.9 µM (inactive) with Malme-3M; > 100 µM (inactive) with A549; 16.2 µM (inactive) in the experiment on MCF7; 18.3 µM (inactive) with MOLT-4. Besides, the GI50 was 14.9 µM (inactive) with KM12; 16.8 µM (inactive) in the experiment with SN12C; 17.1 µM (inactive) in the experiment with HCC 2998; > 100 µM (inactive) with SF-295; 45.2 µM (inactive) in the experiment on HL-60; > 100 µM (inactive) in the experiment with PC-3. Further, the GI50 with MDA-MB-435 is 49.9 µM (inactive); with IGROV-1 it was 19.6 µM (inactive); in the experiment with Hs-578T, 19.4 µM (inactive); with LOX IMVI, 18 µM (inactive); in the experiment with SK-OV-3 it was > 100 µM (inactive); in the experiment with U-251, > 100 µM (inactive). Besides, the values for the GI50 in the experiment on BT-549 and in the experiment with SW-620 were 18.3 µM (inactive) and 19 µM (inactive), respectively.

As for `COc1cc(S(=O)(=O)Nc2ccc(-c3csc(N4C(=O)C(C)SC4c4cccs4)n3)cc2)ccc1Cl` (centres undefined), the GI50 in the experiment on OVCAR-5 was > 100 µM (inactive); in the experiment on SK-MEL-28, 23.8 µM (inactive); with Malme-3M, 60.5 µM (inactive); in the experiment on MCF7, > 100 µM (inactive); with MOLT-4, 16 µM (inactive); in the experiment on KM12 it was 0.931 µM (active). In addition, the GI50 in the experiment on SN12C was 39.3 µM (inactive); in the experiment on SF-295, > 100 µM (inactive); in the experiment on HL-60 it was 18.7 µM (inactive); in the experiment on PC-3, 15.7 µM (inactive); in the experiment with MDA-MB-435, 30 µM (inactive); with IGROV-1 it was 29.1 µM (inactive). The GI50 with Hs-578T is 6.17 µM (inactive); in the experiment on LOX IMVI it was 5.27 µM (inactive); in the experiment with SK-OV-3, 0.481 µM (active); in the experiment with BT-549, 34 µM (inactive); in the experiment with SW-620, 34.4 µM (inactive).

As for `CCOC(=O)NC1=C(N2CC2)C(=O)C(NC(=O)OCC)=C(N2CC2)C1=O` [DIAZIQUONE], the GI50 in the experiment on OVCAR-5 was 7.85 µM (inactive); with SK-MEL-28, 13 µM (inactive); in the experiment with Malme-3M it was 6.49 µM (inactive); with MCF7, 1.98 µM (inactive); with MOLT-4, 1.38 µM (inactive); in the experiment with KM12, 8.81 µM (inactive). Besides, the GI50 in the experiment with SN12C is 1.36 µM (inactive); with HCC 2998 it was 6.85 µM (inactive); in the experiment on SF-295 it was 1.12 µM (active); in the experiment on HL-60, 0.357 µM (active); in the experiment with PC-3, 4.36 µM (inactive); in the experiment on MDA-MB-435, 3.58 µM (inactive). The GI50 with IGROV-1 was 5.33 µM (inactive); in the experiment with Hs-578T, 13.2 µM (inactive); in the experiment on LOX IMVI, 2.31 µM (inactive); in the experiment with SK-OV-3 it was 4.52 µM (inactive); in the experiment on U-251, 2.51 µM (inactive); in the experiment on BT-549 it was 11.4 µM (inactive). Further, in the experiment with SW-620, the GI50 is 4.97 µM (inactive).

The values are drawn from ChEMBL document CHEMBL1201862, “PubChem BioAssay data set” (2004).
